As usually defined, the EC50 is the midpoint of the concentration-response curve. One may read the IC50 as the point on the concentration scale where inhibition reaches its midpoint.

The values below come from patent US20110251230A1, “THERAPEUTICS FOR NEUROLOGICAL DISORDERS” (UNIVERSITY OF SHEFFIELD, priority 2008, published 2011).

Data set [1] concerns NRF2-ARE pathway in the CHO 4× ARE-TK cell line. Briefly: ARE reporter assay in CHO 4×ARE-TK-GFP cell line (GFP induction, EthD1 toxicity). The conditions noted are these: for maximal fold induction: read-out: Average fold GFP induction at maximal response. Here is the method: Chinese Hamster Ovary (CHO), NSC34 mouse motor neuronal cells, C6 (rat) and 1321N1 (human) astrocytic lines were routinely maintained in DMEM supplemented with 10% FBS and penicillin/streptomycin. […] These plasmids were transfected into CHO, C6 and 1321N1 cell lines using Lipofectamine 2000 (Invitrogen) and following 10-14 days of selection in 0.5 mg/ml G418 they were expanded and selected for basal eGFP expression using fluorescence activated cell sorting (BD, FACSAria) with two sequential cell sorts for each cell line. These mixed populations of stable transfectants with basal eGFP expression were used in subsequent assays and designated 4×ARE-TK-GFP for the ARE containing line and TK-GFP for the control cell line. […]
Confluent cultures of 4×ARE-TK-GFP CHO or TK-GFP CHO expressing cells in 96 or 384-well tissue-culture plates were treated with drug (0.01-100 µM in triplicate) or vehicle (0.1-1% DMSO) in FCS-free DMEM in triplicate for 24 hours. The media was removed and replaced with the same volume of PBS containing 0.3 μM EthD1. […] Non-linear regression was used to fit a sigmoidal dose-response curve on a semi-Log plot to calculate the EC50 using GraphPad Prism (GraphPad Software). The reporter assay was conducted in a similar fashion in C6 and 1321N1 astrocyte cell lines stably transfected with the 4×ARE-TK-GFP and TK-GFP constructs except that Eth D1 was added directly in the media and read prior to washing the cells once and reading the […] signal. […]
The compounds were applied in triplicate to confluent cells in 96 well plates in serum free medium for 24 hours and the induction of GFP measured in a fluorescence plate reader. […]

For a further data set, the system named is C6 (rat) astrocytic line. Briefly: C6 oxidative stress assay (serum withdrawal, DCF). Particulars: for Lowest dose with toxicity: C6; for IC50: C6, 24 h pre-treatment, serum withdrawal, DCF; for Maximal % reduction in Oxidative stress: C6, DCF fluorescence.
Data set [2] concerns 1321N1 (human) astrocytic line. Briefly: 1321N1 oxidative stress assay (serum withdrawal, DCF). The conditions noted are these: for Lowest dose with toxicity: 1321N1; for IC50: 1321N1, 24 h pre-treatment, serum withdrawal, DCF; for Maximal % reduction in Oxidative stress: 1321N1, DCF fluorescence.
For data set [3], the system named is NSC34 mouse motor neuronal cells. Briefly: NSC34 oxidative stress assay (serum withdrawal, DCF). The conditions noted are these: for Lowest dose with toxicity: NSC34; for Maximal % reduction in Oxidative stress: NSC34, DCF fluorescence, negative = pro-oxidant.
Description: (§1) A simple oxidative stress assay was used to determine whether preconditioning with NRF2-ARE inducing drugs could protect against a subsequent oxidative stress insult (serum withdrawal). The NSC34, C6 and 1321N1 cells were plated in 96 well tissue culture plates to achieve 30% confluency. […] Media was then replaced with serum free, phenol free media for 5 hrs. […] Cell survival assay was then performed on the cells as protection is measured as % reduction in DCF signal, therefore data points were excluded where a decrease in cell number was measured.
(§2) Briefly methylthiazolyldiphenyl-tetrazolium bromide (MTT) was added to the cells and a blank well to a final concentration 0.5 mg/ml and incubated at 37° C. for 1-3 hrs depending on the cell line used.
The mark [4] stands for this setting: Cricetulus griseus, 24 h, read-out: Average EC50.
Where [5] appears, read: Cricetulus griseus, 24 h, read-out: Average EC50, CHO 4×ARE-TK-GFP, GFP induction, 24 h.
Setting [6] is: read-out: Average EC50, CHO 4×ARE-TK-GFP, GFP induction, 24 h.

Where a name gives a salt, the structure may show the parent alone. Read-outs that look alike come from different tables or passages of the source.

Description for C6 (rat) astrocytic line: as §1, §2

`ClC1=C(Cl)C2(Cl)C3C(Cl)C(Cl)CC3C1(Cl)C2(Cl)Cl` (stereo not drawn) [Chlordane]: the “Lowest dose with toxicity” value in data set [1] (CHO ARE reporter assay) was 100 µM; with C6 (rat) astrocytic line it was “none”; in data set [2] it was “none”; in data set [3], 3 µM. In data set [1] (setting [4]), the 50% effective concentration (EC50) was determined as 9.18 µM. In addition, in data set [1] (Cricetulus griseus, 24 h), the maximal fold induction is 1.56. The IC50 in the data set with C6 (rat) astrocytic line was 3.57 µM.

As to `Oc1ccc(O)cc1` [hydroquinone, reference compound], the “Lowest dose with toxicity” value in data set [1] (Chinese hamster, 24 h) was 100 µM; in the data set on C6 (rat) astrocytic line it was “none”; in data set [2] it was “none”; in data set [3], “none”. Besides, the maximal fold induction in data set [1] (Cricetulus griseus, 24 h) stood at 2.95.

As to `OC[C@H]1O[C@@H](n2cnc3c(NCc4ccco4)ncnc32)[C@H](O)[C@@H]1O` [kinetin riboside], the “Lowest dose with toxicity” value in data set [1] (Chinese hamster, 24 h) is 30 µM; in the data set on C6 (rat) astrocytic line, 10 µM; in data set [2] it was 3 µM; in data set [3], 3 µM. Besides, the EC50 in data set [1] (setting [5]) was found to be 3.39 µM. In data set [1] (Cricetulus griseus, 24 h), the maximal fold induction amounted to 1.97. Besides, the IC50 in the data set with C6 (rat) astrocytic line turned out to be 3.84 µM; in data set [2], 0.246 µM.

In the case of `C=CC(C1=CC(=O)C=CC1=O)c1ccccc1` (stereo not drawn) [Dalbergione], the “Lowest dose with toxicity” value was 30 µM in data set [1] (Chinese hamster, 24 h); “none” in the data set on C6 (rat) astrocytic line; “none” in data set [2]; “none” in data set [3]. In data set [1] (Cricetulus griseus, 24 h), the maximal fold induction was 2.09.

Regarding `CC1(C)C(=O)C=C[C@]2(C)[C@H]3CC[C@@]4(C)[C@H](c5ccoc5)OC(=O)[C@H]5O[C@]54[C@]3(C)[C@H](O)C[C@@H]12` [Deacetylgedunin], the “Lowest dose with toxicity” value in data set [1] (CHO ARE reporter assay) was 30 µM; with C6 (rat) astrocytic line, “none”; in data set [2] it was 10 µM; in data set [3], “none”. In addition, in data set [1] (setting [4]), the concentration giving a half-maximal response (EC50) amounted to 3.5 µM. Besides, in data set [1] (Cricetulus griseus, 24 h), the maximal fold induction was 3.05. The results for the IC50 (with C6 (rat) astrocytic line; in data set [2]) were 5.36 µM and 2.37 µM, respectively.

As for `C=C(C)C(=O)C(=CC(=O)O)OC` [penicillic acid], the “Lowest dose with toxicity” value is 100 µM in data set [1] (CHO ARE reporter assay), “none” with C6 (rat) astrocytic line, “none” in data set [2] and “none” in data set [3]. In data set [1] (setting [4]), the EC50 was 14.9 µM. For the same compound, the maximal fold induction in data set [1] (Cricetulus griseus, 24 h) came out at 2.64. In the data set on C6 (rat) astrocytic line, the IC50 was determined as 4.62 µM.

Consider `CC1=C2C(=CO[C@H](C)[C@H]2C)C(O)=C(C(=O)O)C1=O` [Citrinin], for which the “Lowest dose with toxicity” value was 30 µM in data set [1] (CHO ARE reporter assay), “none” with C6 (rat) astrocytic line, “none” in data set [2] and “none” in data set [3]. The EC50 in data set [1] (setting [4]) came to 4.1 µM. In addition, in data set [1] (Cricetulus griseus, 24 h), the maximal fold induction came out at 3.26. For the same compound, the IC50 with C6 (rat) astrocytic line stood at 20 µM; in data set [2], 0.338 µM.

Regarding 3β hydroxydeoxydesacetoxy-7-oxogedunin, the “Average fold GFP induction at maximal response” value (from here on “Average fold GFP induction”) in data set [1] (CHO 4×ARE-TK-GFP, 24 h) stood at 2.55 fold. Besides, the “Lowest dose with toxicity” value was 30 µM in data set [1] (CHO ARE reporter assay), “none” in the data set on C6 (rat) astrocytic line, “none” in data set [2] and 3 µM in data set [3]. For the same compound, the EC50 in data set [1] (setting [6]) was determined as 8.71 µM. Further, the IC50 was found to be 3.07 µM with C6 (rat) astrocytic line and 3.96 µM in data set [2]. Also, the “Maximal % reduction in Oxidative stress” value in the data set with C6 (rat) astrocytic line is on record as 67%; in data set [2] it was 62%; in data set [3], 0%.

As to `CCCCCc1c2c(cc(O)c1C(=O)O)OC(=O)c1c(cc(OC)cc1C(=O)CCCC)O2` [Lobaric acid], the “Lowest dose with toxicity” value was 100 µM in data set [1] (Chinese hamster, 24 h); “none” in the data set with C6 (rat) astrocytic line; “none” in data set [2]; “none” in data set [3]. In addition, in data set [1] (Cricetulus griseus, 24 h), the maximal fold induction came out at 2.53.

In the case of `O=C(/C=C/c1ccc(O)cc1)c1ccccc1` [4 hydroxychalcone], in data set [1] (CHO ARE reporter assay), the “Lowest dose with toxicity” value is given as “None”. The EC50 in data set [1] (setting [5]) is 3.53 µM. Moreover, in data set [1] (Cricetulus griseus, 24 h), the maximal fold induction amounted to 1.88.

For the compound `COc1cccc(O)c1O` [3 methoxycatechol], the “Lowest dose with toxicity” value is 100 µM in data set [1] (Chinese hamster, 24 h); 10 µM in the data set with C6 (rat) astrocytic line; “none” in data set [2]; 0.3 µM in data set [3]. For the same compound, the maximal fold induction in data set [1] (Cricetulus griseus, 24 h) stood at 3.28.

For the compound `CC1=CC(=O)C(C(C)C)=CC1=O` [Thymoquinone], the “Lowest dose with toxicity” value in data set [1] (Chinese hamster, 24 h) was 30 µM; with C6 (rat) astrocytic line, “none”; in data set [2], “none”; in data set [3], “none”. Moreover, in data set [1] (Cricetulus griseus, 24 h), the maximal fold induction was 2.58.

Turning to `S=C=NCc1ccccc1` [Benzyl Isothiocyanate], the “Lowest dose with toxicity” value in data set [1] (CHO ARE reporter assay) was “None”; in the data set with C6 (rat) astrocytic line, “none”; in data set [2], “none”; in data set [3], “none”. Moreover, the maximal fold induction in data set [1] (Cricetulus griseus, 24 h) was 1.81.

Regarding “methyl-7-deshydroxypyrogallin-4-carboxylate”, the “Average fold GFP induction” value in data set [1] (CHO 4×ARE-TK-GFP, 24 h) is recorded as 2.83 fold. The “Lowest dose with toxicity” value was 100 µM in data set [1] (CHO ARE reporter assay), “none” in the data set with C6 (rat) astrocytic line, “none” in data set [2] and 0.3 µM in data set [3]. In addition, in data set [1] (setting [6]), the EC50 amounted to 2050 µM. Further, in the data set on C6 (rat) astrocytic line, the IC50 is 2.95 µM. The “Maximal % reduction in Oxidative stress” value with C6 (rat) astrocytic line was 70%; in data set [2], 45%; in data set [3] it was −23%.

In the case of `CC(=O)CCC(=O)O` [levulinc acid, Levulinic acid], the “Lowest dose with toxicity” value in data set [1] was “None”; in the data set on C6 (rat) astrocytic line it was “none”; in data set [2], “none”; in data set [3], “none”. For the same compound, the maximal fold induction in data set [1] (Cricetulus griseus, 24 h) was found to be 2.94.

As for `O=c1c2ccccc2[se]n1-c1ccccc1` [Ebselen, reference compound], the “Lowest dose with toxicity” value in data set [1] (Chinese hamster, 24 h) was 100 µM; in the data set on C6 (rat) astrocytic line, “none”; in data set [2] it was “none”; in data set [3] it was “none”. Besides, the maximal fold induction in data set [1] (Cricetulus griseus, 24 h) is 2.81.

Take `CCc1cccc(CC)c1N(COC)C(=O)CCl` [Alachlor]: the “Lowest dose with toxicity” value in the data set on C6 (rat) astrocytic line is “none”.

Consider `CC(COc1ccccc1)NC(C)C(O)c1ccc(O)cc1` (stereo not drawn) [Isoxsuprine hydrochloride, reference compound], for which the “Lowest dose with toxicity” value in data set [1] (Chinese hamster, 24 h) is 100 µM; with C6 (rat) astrocytic line, “none”; in data set [2] it was “none”; in data set [3], “none”. For the same compound, the EC50 in data set [1] (setting [5]) worked out at 8.7 µM. Also, the maximal fold induction in data set [1] (Cricetulus griseus, 24 h) came out at 1.52. Moreover, the IC50 in the data set on C6 (rat) astrocytic line was found to be 23 µM.

Turning to 3-alpha-hydroxygedinin, in data set [1] (CHO 4×ARE-TK-GFP, 24 h), the “Average fold GFP induction” value came to 3.01 fold. Further, the “Lowest dose with toxicity” value in data set [1] (CHO ARE reporter assay) was 100 µM. Besides, the IC50 in the data set on C6 (rat) astrocytic line was 3.22 µM. The “Maximal % reduction in Oxidative stress” value in the data set with C6 (rat) astrocytic line was 42%; in data set [2], 25%; in data set [3], 14%.

Regarding `C=C(CC)C(=O)c1ccc(OCC(=O)O)c(Cl)c1Cl` [Ethacrynic acid, reference compound], the “Lowest dose with toxicity” value in data set [1] (Chinese hamster, 24 h) is 100 µM; in data set [3] it was 10 µM. Also, the IC50 with C6 (rat) astrocytic line amounted to 3.01 µM.

In the case of `CC(=O)O[C@@H]1CC2C(C)(C)C=CC(=O)[C@]2(C)C2CC[C@@]3(C)[C@H](c4ccoc4)OC(=O)C4OC43[C@@]21C` (stereo partly drawn) [Isogedunin], in data set [1] (CHO 4×ARE-TK-GFP, 24 h), the “Average fold GFP induction” value is given as 3.11 fold. The “Lowest dose with toxicity” value in data set [1] (CHO ARE reporter assay) is “None”; in data set [2] it was “none”; in data set [3] it was 1 µM. For the same compound, the EC50 in data set [1] (setting [6]) was 550 µM. Also, the figures for the “Maximal % reduction in Oxidative stress” value in data set [2] and in data set [3] were 10% and 0%, respectively.

`CC(C)(C)c1cc(O)ccc1O` [tBHQ, tert-Butyl Hydroquinone, reference compound]: in data set [1], the “toxicity at concentrations higher than peak expression” value is reported as “signs of toxicity”. For the same compound, in data set [1] (control TK-GFP CHO cell line), the “fluorescence in the control TK-GFP cell line” value is “No increase in fluorescence”. The “concentration of peak ARE activation (GFP expression)” value in data set [1] (narrow window, 24 h, serum free medium) was 10 µM.
